From patent publication US4185096A, “Novel derivatives of pepstatin, their preparation and compositions containing them” (Agence Nationale de Valorisation de la Recherche (ANVAR), priority 1977, dated 1980)
Non-standard residues stand in square brackets, D forms with d. Residues, ends and D or L forms follow the SMILES beside them. *: point of attachment. Sta = CC(C)C[C@H](N)[C@@H](O)CC(=O)O; Isovaleryl = CC(C)CC(=O)*

Columns and labels:
hypertensive rats = assay: blood pressure in rats with renal hypertension (aortic ligature between the renal arteries); format: in vivo, rat; conditions: for decrease of blood pressure: intravenous 350 nmoles, thirteen Saralasin-responder rats, pooled value (2 rats methyl ester, 11 rats arginine salt)
Description: The experimental model of renal hypertension developped in rats by ROJO-ORTEGA and GENEST [Can. J.Phys. Pharm. 46 883-885 (1968)] was used.
A complete ligature of the aorta between the renal arteries was performed in twenty male Sprague-Dawley rats, weighing 300 g. They were investigated between 5 and 10 days after surgery. The blood pressure was measured in the conscious unrestrained rats, through a carotid cannula inserted 24 hours before measurements were made.
The maximal decrease in blood pressure induced by an injection of "Saralasin" was compared [Sar 1, Ala-8 Angiotensin II] in the same animals, to the maximum fall in blood pressure induced by the soluble derivatives of pepstatin according to the invention.
In these thirteen rats, the average blood pressure decrease was 44.5±8.5 mmHg. The intravenous injection of 350 nmoles of pepstatinyl-Arginine-O-Methyl Ester (2 rats), or the Arginine salt of Pepstatinyl (11 rats) decreased blood pressure by 48.3±8.2 mmHg. The maximal fall in blood pressure was obtained 5 minutes after Saralasin, and 6 minutes after soluble pepstatin. Blood pressure returned to the control level 10 minutes after the injection of both inhibitors.

hog renin = assay: in vitro inhibition of hog renin on synthetic N-acetylated tetradecapeptide substrate, fluorimetry, Dixon plot; format: biochemical; conditions: 10 milli-Goldblatt units hog renin, pH 6, one hour, 37° C., Dixon representation; read-out: inhibition constant
Description: 10 milli-Goldblatt units of hog renin, from the same source as above, were incubated at pH 6 for one hour at 37° C. in the presence of a synthetic substrate constituted by a N-acetylated renin tetradecapeptide [GALEN et al. Biochem. Biophys. Acta, 523, 485-493 (1978)]. The tetrapeptide quantity produced per hour of incubation was measured by fluorimetry. Three different concentrations of N-acetylated tetradecapeptide were used, that is to say 2.3, 4.6 and 9.3 nmoles with increasing amounts of pepstatin or methyl ester of pepstatin-[…].25, 0.50 and 0.75 10^-6 mole/l).

Row | Ki (hog renin) [nM] | Structure (SMILES) | rats with a blood pressure fall of 10 mmHg and more (hypertensive rats; among 20 hypertensive rats, intravenous 140 nmoles) [rats] | time of maximal fall in blood pressure after injection (hypertensive rats; intravenous 140 nmoles) [min] | time of return of blood pressure to the control level after injection (hypertensive rats; intravenous 140 nmoles) [min] | average blood pressure decrease (hypertensive rats; intravenous 140 nmoles, thirteen responder rats) [mmHg] | decrease of blood pressure (hypertensive rats) [mmHg]
1 | – | CNCC(=O)N[C@@H](CCCN=C(N)N)C(=O)N[C@H](C(=O)N[C@@H](Cc1ccc(O)cc1)C(=O)N[C@H](C(=O)N[C@@H](Cc1cnc[nH]1)C(=O)N1CCC[C@H]1C(=O)N[C@@H](C)C(=O)O)C(C)C)C(C)C [Saralasin, Sar 1, Ala-8 Angiotensin II] | 13 | 5 | 10 | 44.5±8.5 | –
2 | 315 | COC(=O)[C@H](CCCNC(=N)N)NC(=O)C[C@H](O)[C@H](CC(C)C)NC(=O)[C@H](C)NC(=O)C[C@H](O)[C@H](CC(C)C)NC(=O)[C@@H](NC(=O)[C@@H](NC(=O)CC(C)C)C(C)C)C(C)C [methyl ester of pepstatin-arginine] (Isovaleryl-VV[Sta]A[Sta]R-OMe) | – | – | – | – | 48.3±8.2
3 | – | CC(C)CC(=O)N[C@H](C(=O)N[C@H](C(=O)N[C@@H](CC(C)C)[C@@H](O)CC(=O)N[C@@H](C)C(=O)N[C@@H](CC(C)C)[C@@H](O)CC(=O)N[C@@H](CCCNC(=N)N)C(=O)O)C(C)C)C(C)C [pepstatin-arginine] (Isovaleryl-VV[Sta]A[Sta]R-OH) | – | – | – | – | 48.3±8.2
